Measurements published in patent US8217013B2, “Polyene diester antibiotics” (priority 2007, dated 2012).
Like-named read-outs stand apart in the source and are kept apart here.

How the values were obtained:
Test in all cases: Test of antibacterial activity in vitro (bacteria-inhibition zone)
Type in all cases: cell-based
Candida albicans = conditions: for zone of inhibition at 5.6 µg/mL: Candida albicans
Text: (§1) Test of Antibacterial Activity In Vitro
(§2) Experiment drugs: the polyene diester compounds prepared by examples 1-12
(§3) Control drugs: amphotericin B (standard product) • mycostatin (standard product) • natamycin (standard product)
2.1 Preparation of Candida albicans suspension: PHARMACOPOEIA OF THE PEOPLES REPUBLIC OF CHINA, second part, 2005 edition, appendix p 81-84.
(§4) Taking appropriate amount of the above mentioned amphotericin B, mycostatin, natamycin and the polyene diester compounds prepared by examples 1-8 and 10-12, dissolving in a little dimethyl sulfoxide respectively, using pH7 phosphate buffer to dilute into solution which is equivalent to contain amphotericin B, mycostatin, natamycin 280 Units per milliliter, taking 1 ml and using pH7 phosphate buffer to quantitatively dilute into solution which is equivalent to contain amphotericin B 1.4 μg/ml and 2.8 μg/ml, and is equivalent to contain 5.6 μg/ml of mycostatin and natamycin.
(§5) In addition, preparing the solution according to the same method, adding 40% defibered sheep serum, using pH7 phosphate buffer to quantitatively dilute into unit solution which is equivalent to contain amphotericin B 1.4 μg/ml and 2.8 μg/ml, and is equivalent to contain 5.6 μg/ml of mycostatin and natamycin. Testing according to PHARMACOPOEIA OF THE PEOPLES REPUBLIC OF CHINA, second part, 2005 edition, appendix XIA The Antibiotics Microorganism Test.
(§6) Medium: Improved Martin Agar Medium, PHARMACOPOEIA OF THE PEOPLES REPUBLIC OF CHINA, second part, 2005 edition, appendix p 84.
Test method: Double-plate counting method; […] bacteria bed 15 ml to replace the double layers, culture temperature: 37° C., time: 24 h; strain concentration: 1% […]

Candida mycoderma = system: Candida mycoderma
Text: as §1, §2, §3
2.3 Preparation of Candida mycoderrna suspension: the method is as same as preparation of Saccharomyces cerevisiae suspension
as §4, §5, §6
(§7) Test method: Double-plate counting method; […] bacteria bed 15 ml to replace the double layers, culture temperature: 37° C., time: 24 h; strain concentration: 1%
(§8) Medium: Modified Martin Broth Medium

Saccharomyces cerevisiae = conditions: for zone of inhibition at 5.6 µg/mL: Saccharomyces cerevisiae
Text: as §1, §2, §3
2.2 Preparation of Saccharomyces cerevisiae suspension: PHARMACOPOEIA OF THE PEOPLES REPUBLIC OF CHINA, second part, 2005 edition, appendix p 80, p 83.
as §4, §5, §6, §7, §8

[1] = 0 h, 5.6 μg/ml after conversion, serum added (40% defibered sheep serum)
[2] = 6 h, 5.6 μg/ml after conversion, serum added (40% defibered sheep serum)
[3] = 24 h, 5.6 μg/ml after conversion, serum added (40% defibered sheep serum)
[4] = 48 h, 5.6 μg/ml after conversion, serum added (40% defibered sheep serum)
[5] = 0 h, 5.6 μg/ml after conversion, no serum
[6] = 6 h, 5.6 μg/ml after conversion, no serum
[7] = 24 h, 5.6 μg/ml after conversion, no serum
[8] = 48 h, 5.6 μg/ml after conversion, no serum
[9] = 0 h, 2.8 μg/ml after conversion, no serum
[10] = 0 h, 2.8 μg/ml after conversion, serum added (40% defibered sheep serum)
[11] = 6 h, 2.8 μg/ml after conversion, no serum
[12] = 24 h, 2.8 μg/ml after conversion, no serum
[13] = 48 h, 2.8 μg/ml after conversion, no serum

Row | Compound | diameter of the bacteria-inhibition zone, Candida albicans 0 h (Candida albicans; [1]) | diameter of the bacteria-inhibition zone, Candida albicans 6 h (Candida albicans; [2]) | diameter of the bacteria-inhibition zone, Candida albicans 24 h (Candida albicans; [3]) | diameter of the bacteria-inhibition zone, Candida albicans 48 h (Candida albicans; [4]) | diameter of the bacteria-inhibition zone, Candida albicans 0 h (Candida albicans; [5]) | diameter of the bacteria-inhibition zone, Candida albicans 6 h (Candida albicans; [6]) | diameter of the bacteria-inhibition zone, Candida albicans 24 h (Candida albicans; [7]) | diameter of the bacteria-inhibition zone, Candida albicans 48 h (Candida albicans; [8]) | diameter of the bacteria-inhibition zone, Candida mycoderma 0 h (Candida mycoderma; [5]) | diameter of the bacteria-inhibition zone, Candida mycoderma 0 h (Candida mycoderma; [1]) | diameter of the bacteria-inhibition zone, Candida mycoderma 6 h (Candida mycoderma; [6]) | diameter of the bacteria-inhibition zone, Candida mycoderma 24 h (Candida mycoderma; [7]) | diameter of the bacteria-inhibition zone, Candida mycoderma 48 h (Candida mycoderma; [8]) | diameter of the bacteria-inhibition zone, Saccharomyces cerevisiae 0 h (Saccharomyces cerevisiae; [5]) | diameter of the bacteria-inhibition zone, Saccharomyces cerevisiae 0 h (Saccharomyces cerevisiae; [1]) | diameter of the bacteria-inhibition zone, Saccharomyces cerevisiae 6 h (Saccharomyces cerevisiae; [6]) | diameter of the bacteria-inhibition zone, Saccharomyces cerevisiae 6 h (Saccharomyces cerevisiae; [2]) | diameter of the bacteria-inhibition zone, Saccharomyces cerevisiae 24 h (Saccharomyces cerevisiae; [7]) | diameter of the bacteria-inhibition zone, Saccharomyces cerevisiae 48 h (Saccharomyces cerevisiae; [8]) | other results
1 | CC1OC(OC2/C=C/C=C/C=C/C=C/CC/C=C/C=C/C(C)[C@@H](O)[C@@H](C)[C@H](C)OC(=O)CC(O)CC(O)CC(O)CCC(O)C(O)C[C@]3(O)CC(O)C(C(=O)O)C(C2)O3)C(O)C(N)C1O (stereo partly drawn) [mycostatin, reference compound] | + (7-9 mm: +) | + (7-9 mm: +) | + (7-9 mm: +) | + (7-9 mm: +) | – | – | – | – | – | – | – | – | – | – | – | – | – | – | – | zone of inhibition at 5.6 µg/mL (Candida albicans; 0 h, 5.6 μg/ml after conversion, no serum, read-out: diameter of the bacteria-inhibition zone, Candida albicans 0 h): 7 to 9 mm; zone of inhibition at 5.6 µg/mL (Candida albicans; 6 h, 5.6 μg/ml after conversion, no serum, read-out: diameter of the bacteria-inhibition zone, Candida albicans 6 h): 7 to 9 mm; zone of inhibition at 5.6 µg/mL (Candida albicans; 24 h, 5.6 μg/ml after conversion, no serum, read-out: diameter of the bacteria-inhibition zone, Candida albicans 24 h): 7 to 9 mm; zone of inhibition at 5.6 µg/mL (Candida albicans; 48 h, 5.6 μg/ml after conversion, no serum, read-out: diameter of the bacteria-inhibition zone, Candida albicans 48 h): 7 to 9 mm; zone of inhibition at 5.6 µg/mL (Candida mycoderma; 0 h, 5.6 μg/ml after conversion, no serum, read-out: diameter of the bacteria-inhibition zone, Candida mycoderma 0 h): 12 to 14 mm; zone of inhibition at 5.6 µg/mL (Candida mycoderma; 6 h, 5.6 μg/ml after conversion, no serum, read-out: diameter of the bacteria-inhibition zone, Candida mycoderma 6 h): 12 to 14 mm; zone of inhibition at 5.6 µg/mL (Candida mycoderma; 24 h, 5.6 μg/ml after conversion, no serum, read-out: diameter of the bacteria-inhibition zone, Candida mycoderma 24 h): 12 to 14 mm; zone of inhibition at 5.6 µg/mL (Candida mycoderma; 48 h, 5.6 μg/ml after conversion, no serum, read-out: diameter of the bacteria-inhibition zone, Candida mycoderma 48 h): 12 to 14 mm; zone of inhibition at 5.6 µg/mL (Saccharomyces cerevisiae; 0 h, 5.6 μg/ml after conversion, no serum, read-out: diameter of the bacteria-inhibition zone, Saccharomyces cerevisiae 0 h): 14 to 16 mm; zone of inhibition at 5.6 µg/mL (Saccharomyces cerevisiae; 0 h, 5.6 μg/ml after conversion, serum added (40% defibered sheep serum), read-out: diameter of the bacteria-inhibition zone, Saccharomyces cerevisiae 0 h): 14 to 16 mm; zone of inhibition at 5.6 µg/mL (Saccharomyces cerevisiae; 6 h, 5.6 μg/ml after conversion, no serum, read-out: diameter of the bacteria-inhibition zone, Saccharomyces cerevisiae 6 h): 14 to 16 mm; zone of inhibition at 5.6 µg/mL (Saccharomyces cerevisiae; 6 h, 5.6 μg/ml after conversion, serum added (40% defibered sheep serum), read-out: diameter of the bacteria-inhibition zone, Saccharomyces cerevisiae 6 h): 14 to 16 mm; zone of inhibition at 5.6 µg/mL (Saccharomyces cerevisiae; 24 h, 5.6 μg/ml after conversion, no serum, read-out: diameter of the bacteria-inhibition zone, Saccharomyces cerevisiae 24 h): 14 to 16 mm; zone of inhibition at 5.6 µg/mL (Saccharomyces cerevisiae; 24 h, 5.6 μg/ml after conversion, serum added (40% defibered sheep serum), read-out: diameter of the bacteria-inhibition zone, Saccharomyces cerevisiae 24 h): 14 to 16 mm; zone of inhibition at 5.6 µg/mL (Saccharomyces cerevisiae; 48 h, 5.6 μg/ml after conversion, no serum, read-out: diameter of the bacteria-inhibition zone, Saccharomyces cerevisiae 48 h): 14 to 16 mm; zone of inhibition at 5.6 µg/mL (Saccharomyces cerevisiae; 48 h, 5.6 μg/ml after conversion, serum added (40% defibered sheep serum), read-out: diameter of the bacteria-inhibition zone, Saccharomyces cerevisiae 48 h): 14 to 16 mm
2 | CCOC(=O)OC(C)OC(=O)[C@H]1[C@@H]2C[C@@H](O[C@@H]3OC(C)[C@@H](O)[C@@H](N)[C@H]3O)/C=C/C=C/C=C/C=C/C[C@@H](C)OC(=O)/C=C/[C@H]3O[C@@H]3C[C@H](O)C[C@](O)(C[C@@H]1O)O2 (stereo partly drawn) [natamycin ethoxycarbonyloxyethyl ester] | + (7-9 mm: +) | ++ (9-12 mm: ++) | ++ (9-12 mm: ++) | ++ (9-12 mm: ++) | + (7-9 mm: +) | + (7-9 mm: +) | + (7-9 mm: +) | + (7-9 mm: +) | + (7-9 mm: +) | + (7-9 mm: +) | + (7-9 mm: +) | + (7-9 mm: +) | + (7-9 mm: +) | + (7-9 mm: +) | + (7-9 mm: +) | + (7-9 mm: +) | ++ (9-12 mm: ++) | + (7-9 mm: +) | + (7-9 mm: +) | diameter of the bacteria-inhibition zone, Candida mycoderma 6 h (Candida mycoderma; [2]): ++ (9-12 mm: ++)
3 | Natamycin methyl pivalate | + (7-9 mm: +) | ++ (9-12 mm: ++) | ++ (9-12 mm: ++) | ++ (9-12 mm: ++) | + (7-9 mm: +) | + (7-9 mm: +) | + (7-9 mm: +) | + (7-9 mm: +) | ++ (9-12 mm: ++) | ++ (9-12 mm: ++) | ++ (9-12 mm: ++) | ++ (9-12 mm: ++) | ++ (9-12 mm: ++) | + (7-9 mm: +) | + (7-9 mm: +) | + (7-9 mm: +) | ++ (9-12 mm: ++) | + (7-9 mm: +) | + (7-9 mm: +) | –
4 | amphotericin B-1, 3-2H-3-oxo-1-isobenzofuran ester | – | – | – | – | – | – | – | – | – | – | – | – | – | – | – | – | – | – | – | diameter of the bacteria-inhibition zone, Candida albicans 0 h (Candida albicans; [9]): + (7-9 mm: +); diameter of the bacteria-inhibition zone, Candida albicans 0 h (Candida albicans; [10]): + (7-9 mm: +); diameter of the bacteria-inhibition zone, Candida albicans 6 h (Candida albicans; [11]): + (7-9 mm: +); diameter of the bacteria-inhibition zone, Candida albicans 6 h (Candida albicans; 6 h, 2.8 μg/ml after conversion, serum added (40% defibered sheep serum)): ++ (9-12 mm: ++); diameter of the bacteria-inhibition zone, Candida albicans 24 h (Candida albicans; [12]): + (7-9 mm: +); diameter of the bacteria-inhibition zone, Candida albicans 48 h (Candida albicans; [13]): + (7-9 mm: +); diameter of the bacteria-inhibition zone, Candida mycoderma 0 h (Candida mycoderma; [9]): ++ (9-12 mm: ++); diameter of the bacteria-inhibition zone, Candida mycoderma 0 h (Candida mycoderma; [10]): ++ (9-12 mm: ++); diameter of the bacteria-inhibition zone, Candida mycoderma 6 h (Candida mycoderma; [11]): ++ (9-12 mm: ++); diameter of the bacteria-inhibition zone, Candida mycoderma 24 h (Candida mycoderma; [12]): ++ (9-12 mm: ++); diameter of the bacteria-inhibition zone, Candida mycoderma 48 h (Candida mycoderma; [13]): ++ (9-12 mm: ++); diameter of the bacteria-inhibition zone, Saccharomyces cerevisiae 0 h (Saccharomyces cerevisiae; [9]): ++ (9-12 mm: ++); diameter of the bacteria-inhibition zone, Saccharomyces cerevisiae 0 h (Saccharomyces cerevisiae; [10]): ++ (9-12 mm: ++); diameter of the bacteria-inhibition zone, Saccharomyces cerevisiae 6 h (Saccharomyces cerevisiae; [11]): ++ (9-12 mm: ++); diameter of the bacteria-inhibition zone, Saccharomyces cerevisiae 24 h (Saccharomyces cerevisiae; [12]): ++ (9-12 mm: ++); diameter of the bacteria-inhibition zone, Saccharomyces cerevisiae 48 h (Saccharomyces cerevisiae; [13]): ++ (9-12 mm: ++)
5 | mycostatin ethyl acetate | + (7-9 mm: +) | + (7-9 mm: +) | + (7-9 mm: +) | + (7-9 mm: +) | + (7-9 mm: +) | + (7-9 mm: +) | + (7-9 mm: +) | + (7-9 mm: +) | ++ (9-12 mm: ++) | ++ (9-12 mm: ++) | ++ (9-12 mm: ++) | ++ (9-12 mm: ++) | ++ (9-12 mm: ++) | ++ (9-12 mm: ++) | ++ (9-12 mm: ++) | ++ (9-12 mm: ++) | – | ++ (9-12 mm: ++) | ++ (9-12 mm: ++) | –
